Results from article PMC5889410, “Design and Biological Evaluation of Antifouling Dihydrostilbene Oxime Hybrids” (Marine Biotechnology (New York, N.y.), 2018).
Like-named read-outs stand apart in the source and are kept apart here.

What was measured:
[1] = test system: Balanus improvisus cyprid larvae; conditions: cited from earlier work
[2] = test system: blue mussel phenoloxidase; parameters: method as in Bayer et al. [2011]; conditions: ref Bayer et al. [2011]; cited from earlier work
[3] = test system: Halomonas aquamarina; assay: Bacterial adhesion assay (crystal violet, OD 595 nm); type: cell-based; conditions: Vreelandella aquamarina, 48 h incubation, 10–0.01 μg/mL tested, read-out: MIC against the adhesion of marine bacteria, H.a.
Description: (§1) Cyprid larvae of B. improvisus were reared in a laboratory cultivating system at Tjärnö Marine Biological Laboratory, University of Gothenburg, Sweden, as previously described by Berntsson et al. ([2000]). Four pure, but non-axenic, marine microalgae (obtained from Algobank, Caen, France) and 10 marine bacterial strains were used (Table 1) as representative microfoulers. These strains represent fouling species encountered in both estuarine and marine environments (Moodie et al. [2017b]). The bacteria were grown at 26 °C in a marine medium, composed of 0.5% peptone (neutralized bacteriological peptone, Oxoid Ltd.) in filtered (Whatman 1001–270, pore size 11 μm) natural seawater. Microalgae were grown and maintained at 22 °C in F/2 medium.
(§2) Bacterial strain adhesion and growth were determined according to the methods of Thabard et al. ([2011]). Bacterial suspensions (100-μL aliquots, 2 × 10^8 colony forming units/mL) were aseptically added to the compound containing microplate wells (10–0.01 μg/mL), and the plates were incubated for 48 h at 26 °C. Media only was used as a blank. Bacterial growth was monitored spectroscopically at 630 nm. The minimal inhibitory concentration (MIC) for bacterial growth was defined as the lowest concentration which results in a decrease in OD. After 48-h incubation time, the bacterial adhesion assay was conducted by emptying the wells and rinsing with sterile seawater (100 μL) to remove non-attached cells, and air-drying at room temperature. The residual bacterial biofilm was stained with aqueous crystal violet (100 μL, 0.3% v/v) and the OD measured at 595 nm (Sonak and Bhosle [1995]). […] If inhibition was observed, toxicity tests were conducted. The well contents were transferred into a flask of fresh media, and growth was measured after 5 days of additional incubation. The mode of action was deemed biostatic if an increase in OD was measured at 595 nm (Moodie et al. [2017a]).

[4] = test system: Vibrio aestuarianus; assay: as above; type: cell-based; conditions: 48 h, read-out: MIC against the adhesion of marine bacteria, V.a.
Description: as §1, §2

[5] = test system: Vibrio carchariae; assay: as above; type: cell-based; conditions: Vibrio harveyi, 48 h, read-out: MIC against the adhesion of marine bacteria, V.c.
Description: as §1, §2

[6] = test system: Vibrio harveyi; assay: as above; type: cell-based; conditions: 48 h, read-out: MIC against the adhesion of marine bacteria, V.h.
Description: as §1, §2

[7] = test system: marine bacteria; assay: Bacterial adhesion assay, whole panel of ten strains; type: cell-based, 10 marine bacterial strains; conditions: tested up to 10 μg/mL, active = MIC of 10 μg/mL or below
Description: as §1, §2

[8] = test system: Halomonas aquamarina; assay: Bacterial growth assay (OD 630 nm); type: cell-based; conditions: Vreelandella aquamarina, 48 h incubation, 10–0.01 μg/mL tested, read-out: MIC against the growth of marine bacteria, H.a.
Description: as §1, §2

[9] = test system: Pseudoalteromonas elyakovii; assay: Bacterial growth assay (OD 630 nm); type: cell-based; conditions: 48 h incubation, 10–0.01 μg/mL tested, read-out: MIC against the growth of marine bacteria, P.e.
Description: as §1, §2

[10] = test system: Roseobacter litoralis; assay: Bacterial growth assay (OD 630 nm); type: cell-based; conditions: 48 h incubation, 10–0.01 μg/mL tested, read-out: MIC against the growth of marine bacteria, R.l.
Description: as §1, §2

[11] = test system: Shewanella putrefaciens; assay: Bacterial growth assay (OD 630 nm); type: cell-based; conditions: 48 h incubation, 10–0.01 μg/mL tested, read-out: MIC against the growth of marine bacteria, S.p.
Description: as §1, §2

[12] = test system: Vibrio aestuarianus; assay: Bacterial growth assay (OD 630 nm); type: cell-based; conditions: 48 h incubation, 10–0.01 μg/mL tested, read-out: MIC against the growth of marine bacteria, V.a.
Description: as §1, §2

[13] = test system: Vibrio carchariae; assay: Bacterial growth assay (OD 630 nm); type: cell-based; conditions: Vibrio harveyi, 48 h incubation, 10–0.01 μg/mL tested, read-out: MIC against the growth of marine bacteria, V.c.
Description: as §1, §2

[14] = test system: Vibrio harveyi; assay: Bacterial growth assay (OD 630 nm); type: cell-based; conditions: 48 h incubation, 10–0.01 μg/mL tested, read-out: MIC against the growth of marine bacteria, V.h.
Description: as §1, §2

[15] = test system: Vibrio natriegens; assay: Bacterial growth assay (OD 630 nm); type: cell-based; conditions: 48 h incubation, 10–0.01 μg/mL tested, read-out: MIC against the growth of marine bacteria, V.n.
Description: as §1, §2

[16] = test system: Vibrio proteolyticus; assay: Bacterial growth assay (OD 630 nm); type: cell-based; conditions: 48 h incubation, 10–0.01 μg/mL tested, read-out: MIC against the growth of marine bacteria, V.p.
Description: as §1, §2

[17] = test system: Cylindrotheca closterium; assay: Microalgal growth assay (chlorophyll a); type: cell-based; conditions: 120 h, 5 days incubation, 10–0.01 μg/mL tested, read-out: MIC against the growth (G) of microalgae, C. closterium
Description: as §1
(§3) Microplates containing the compounds in ranging concentrations (10–0.01 μg/mL) were prepared from MeOH stock solutions as previously described (Trepos et al. [2014]; Moodie et al. [2017a]). Microalgal stock solutions were prepared using the chlorophyll analysis methodology of Chambers et al. ([2011]). The pretreated microplate wells were treated with 100 μL of the algal stock solutions (0.1 mg chlorophyll a/mL). The plates were then incubated for 5 days at 20 °C under constant light exposure (140 μmol m^−2 s^−1). Both microalgal adhesion and growth inhibition were measured. Growth was determined by analysis of liberated chlorophyll a after centrifugation and methanol addition. Chlorophyll a was quantified fluorometrically. MIC value for algal growth was defined as the lowest concentration yielding a decrease in chlorophyll a content. Microalgal adhesion was determined in an analogous manner where the non-attached algal cells were removed prior to methanol addition (100 μL), releasing chlorophyll a from the remaining algal biofilms. The MIC for adhesion was defined as the lowest compound concentration causing a reduction in […]. Toxicity experiments were performed in an analogous manner to those described for the bacterial assays.

[18] = test system: Halamphora coffeaeformis; assay: Microalgal growth assay (chlorophyll a); type: cell-based; conditions: Halamphora coffeiformis, 120 h, 5 days incubation, 10–0.01 μg/mL tested, read-out: MIC against the growth (G) of microalgae, H. coffeaformis
Description: as §1, §3

[19] = test system: Pleurochrysis roscoffensis; assay: Microalgal growth assay (chlorophyll a); type: cell-based; conditions: Chrysotila roscoffensis, 120 h, 5 days incubation, 10–0.01 μg/mL tested, read-out: MIC against the growth (G) of microalgae, P. roscoffensis
Description: as §1, §3

[20] = test system: Porphyridium purpureum; assay: Microalgal growth assay (chlorophyll a); type: cell-based; conditions: 120 h, 5 days incubation, 10–0.01 μg/mL tested, read-out: MIC against the growth (G) of microalgae, P. purpureum
Description: as §1, §3

[21] = test system: Balanus improvisus cyprid larvae; assay: whole plant or invertebrate; type: in vivo
Description: as §1
Stock solutions of compounds in DMSO were serially diluted in untreated polystyrene Petri dishes containing 10 mL of filtered (0.2 μm) seawater, affording final concentrations ranging from 0.1 to 10 μg/mL. Freshly molted balanide cyprids (18–22) were added to each Petri dish and incubated at ambient temperature (20–25 °C) for 5 days. Cyprid metamorphosis was assessed using a dissecting microscope where the numbers of juvenile settled, free-swimming, and dead cyprids were noted. Initial compound screening was conducted at 5 μg/mL, and full IC50 determination was performed only on compounds displaying > 50% inhibition at that concentration. The IC50 was defined as the concentration preventing 50% of the cyprid settlement on the Petri dish surface. Each concentration was replicated four times (n = 4), and dishes containing 0.1% of DMSO were used as negative controls. The commercial AF agent Sea-nine™ was employed as a positive control.

[22] = test system: Vibrio aestuarianus; conditions: ref Hanssen et al. ([2014]); cited from earlier work
[23] = test system: Vibrio carchariae; conditions: ref Hanssen et al. ([2014]); cited from earlier work
[24] = test system: Vibrio harveyi; conditions: ref Hanssen et al. ([2014]); cited from earlier work
[25] = test system: Vibrio proteolyticus; conditions: ref Hanssen et al. ([2014]); cited from earlier work
[26] = test system: Halomonas aquamarina; conditions: ref Hanssen et al. ([2014]); cited from earlier work
[27] = test system: marine bacteria; conditions: panel of marine bacteria; ref Hanssen et al. [2014]; cited from earlier work
[28] = test system: Vibrio aestuarianus; conditions: ref Hanssen et al. ([2014]); cited from earlier work; remark: listed apart in the source
[29] = test system: Vibrio carchariae; conditions: ref Hanssen et al. ([2014]); cited from earlier work; remark: listed apart in the source
[30] = test system: Vibrio harveyi; conditions: ref Hanssen et al. ([2014]); cited from earlier work; remark: listed apart in the source
[31] = test system: Vibrio natriegens; conditions: ref Hanssen et al. ([2014]); cited from earlier work
[32] = test system: Vibrio proteolyticus; conditions: ref Hanssen et al. ([2014]); cited from earlier work; remark: listed apart in the source
[33] = test system: Halomonas aquamarina; conditions: ref Hanssen et al. ([2014]); cited from earlier work; remark: listed apart in the source
[34] = test system: Roseobacter litoralis; conditions: ref Hanssen et al. ([2014]); cited from earlier work
[35] = test system: Shewanella putrefaciens; conditions: ref Hanssen et al. ([2014]); cited from earlier work
[36] = test system: Pseudoalteromonas elyakovii; conditions: ref Hanssen et al. ([2014]); cited from earlier work
[37] = test system: Halamphora coffeaeformis; conditions: ref Hanssen et al. ([2014]); cited from earlier work
[38] = test system: Halamphora coffeaeformis; conditions: ref Hanssen et al. ([2014]); cited from earlier work; remark: listed apart in the source
[39] = test system: Pleurochrysis roscoffensis; conditions: ref Hanssen et al. ([2014]); cited from earlier work
[40] = test system: Pleurochrysis roscoffensis; conditions: ref Hanssen et al. ([2014]); cited from earlier work; remark: listed apart in the source
[41] = test system: Cylindrotheca closterium; conditions: ref Hanssen et al. ([2014]); cited from earlier work
[42] = test system: Cylindrotheca closterium; conditions: ref Hanssen et al. ([2014]); cited from earlier work; remark: listed apart in the source
[43] = test system: Porphyridium purpureum; conditions: ref Hanssen et al. ([2014]); cited from earlier work
[44] = test system: Porphyridium purpureum; conditions: ref Hanssen et al. ([2014]); cited from earlier work; remark: listed apart in the source
[45] = test system: microalgae; parameters: method as in Hanssen et al. [2014]; conditions: ref Hanssen et al. [2014]; cited from earlier work

O=C(NCCc1ccc(O)cc1)C(Cc1ccc(O)cc1)=NO [Compound 4, debromohemibastadin-1]
inhibit: inhibition of phenoloxidase, in words [2]
100 µM: minimum significant dose to inhibit settlement ([1]; B. improvisus larvae settlement, ref Ortlepp et al. [2007])

COc1cc(CC(=NO)c2ccc(OC)c(OC)c2)ccc1O [Compound 14, 1-(3,4-dimethoxyphenyl)-1-hydroxyimino-2-(3’-methoxy-4’-hydroxyphenyl)-ethane]
10 µg/mL: MIC [3] | MIC [4] | MIC [5] | MIC [6] | MIC [11] | MIC [17] | MIC [18] | MIC [19]
1 µg/mL: IC50 ([21]; Amphibalanus improvisus, 120 h, read-out: IC50 (cyprid settlement inhibition))
> 10 µg/mL: MIC [8] | MIC [9] | MIC [10] | MIC [12] | MIC [13] | MIC [14] | MIC [15] | MIC [16] | MIC [20]
displayed inhibitory activities: MIC / activity against the adhesion of all bacteria tested [7]
4.8%: Toxicity (%) (dead cyprids) ([21]; Balanus improvisus, in vivo, 5 days, 5 μg/mL)

COc1c(Br)cc(C/C(=N\O)C(=O)NCCc2c[nH]c(=N)[nH]2)cc1Br [Ianthelline, ianthelline]
10.0%: Toxicity (%) (dead cyprids) ([1]; B. improvisus, reported at 5 μg/mL, ref Hanssen et al. ([2014]))
3.0 µg/mL: IC50 (cyprid settlement inhibition) ([1]; B. improvisus, ref Hanssen et al. ([2014]))
– (Not active at > 10 μg/mL): MIC against the adhesion of marine bacteria, V.c. [23] | MIC against the adhesion of marine bacteria, V.h. [24] | MIC against the adhesion of marine bacteria, V.p. [25] | MIC against the adhesion of marine bacteria, H.a. [26] | MIC against the growth of marine bacteria, V.c. [29] | MIC against the growth of marine bacteria, V.n. [31] | MIC against the growth of marine bacteria, H.a. [33]
poor antialgal activity: antialgal activity, in words [45]
0.1 µg/mL: MIC against the adhesion of marine bacteria, V.a. [22] | MIC against the growth of marine bacteria, V.a. [28] | MIC against the growth of marine bacteria, S.p. [35]
1 µg/mL: MIC against the growth of marine bacteria, R.l. [34] | MIC against the growth of marine bacteria, P.e. [36]
not effective: Inhibition of bacterial adhesion, in general [27]
10 µg/mL: MIC against the growth of marine bacteria, V.h. [30] | MIC against the growth of marine bacteria, V.p. [32] | MIC against the growth (G) of microalgae, P. roscoffensis [40]
> 10 µg/mL: MIC against the adhesion (A) of microalgae, H. coffeaformis [37] | MIC against the growth (G) of microalgae, H. coffeaformis [38] | MIC against the adhesion (A) of microalgae, P. roscoffensis [39] | MIC against the adhesion (A) of microalgae, C. closterium [41] | MIC against the growth (G) of microalgae, C. closterium [42] | MIC against the adhesion (A) of microalgae, P. purpureum [43] | MIC against the growth (G) of microalgae, P. purpureum [44]
